We go through two substances from PMC11946789, “Two Amino Acid Substitutions Improve the Pharmacological Profile of the Snake Venom Peptide Mambalgin” (Toxins, 2025).

For one test, the system named is rASIC1a/3. The settings on record: reported in literature; cited from earlier work.
Another test concerns rASIC1b. The settings on record: literature, cited from earlier work.
The target in test [1] is rat ASIC1b channel, homomeric (rat) (UniProt P55926).
The target in test [2] is rat ASIC1a channel, homomeric (rat) (UniProt P55926).
Test [3] has the same target. This is another data set of the same source.

Read-outs that look alike come from different tables or passages of the source. Where no end group is shown, it is not given here.

rat ASIC1a channel, homomeric (rat), sequence (P55926 whole entry): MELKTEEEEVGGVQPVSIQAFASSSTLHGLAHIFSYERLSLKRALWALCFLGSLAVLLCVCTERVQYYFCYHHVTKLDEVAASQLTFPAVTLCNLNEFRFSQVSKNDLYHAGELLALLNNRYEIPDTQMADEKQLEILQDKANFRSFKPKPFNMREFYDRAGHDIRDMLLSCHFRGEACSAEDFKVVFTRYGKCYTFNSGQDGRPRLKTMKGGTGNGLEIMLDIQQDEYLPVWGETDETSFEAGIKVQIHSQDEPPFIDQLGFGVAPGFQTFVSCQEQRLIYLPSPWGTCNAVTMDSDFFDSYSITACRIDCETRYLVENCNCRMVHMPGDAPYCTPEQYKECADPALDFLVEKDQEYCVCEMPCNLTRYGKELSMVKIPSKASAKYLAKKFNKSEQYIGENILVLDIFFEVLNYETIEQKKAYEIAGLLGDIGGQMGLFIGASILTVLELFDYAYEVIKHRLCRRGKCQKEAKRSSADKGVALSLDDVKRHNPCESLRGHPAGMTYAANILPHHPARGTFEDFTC
rat ASIC1b channel, homomeric (rat), sequence (P55926 other isoform, or with tags, fused parts or gaps): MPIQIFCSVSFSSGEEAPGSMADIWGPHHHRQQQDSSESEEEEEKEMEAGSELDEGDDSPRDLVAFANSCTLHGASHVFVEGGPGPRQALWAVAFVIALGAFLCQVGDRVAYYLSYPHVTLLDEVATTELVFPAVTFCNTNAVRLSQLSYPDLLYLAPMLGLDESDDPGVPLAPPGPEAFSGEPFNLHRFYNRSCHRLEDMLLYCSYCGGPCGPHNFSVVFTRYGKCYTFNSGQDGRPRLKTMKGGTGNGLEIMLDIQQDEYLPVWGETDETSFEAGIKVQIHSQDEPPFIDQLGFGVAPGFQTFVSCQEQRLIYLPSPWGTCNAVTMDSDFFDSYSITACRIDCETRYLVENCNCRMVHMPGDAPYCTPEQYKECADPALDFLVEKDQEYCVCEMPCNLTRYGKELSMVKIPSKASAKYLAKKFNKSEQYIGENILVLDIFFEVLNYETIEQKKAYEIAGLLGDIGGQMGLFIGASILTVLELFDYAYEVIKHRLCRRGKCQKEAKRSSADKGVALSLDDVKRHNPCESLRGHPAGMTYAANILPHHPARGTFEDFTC

One may read the IC50 as the midpoint of a concentration-inhibition curve. Turning to “Mamb-1 (LKCYQHGKVVTCHRDMKFCYHNTGMPFRNLKLILQGCSSSCSETENNKCCSTDRCNK; ends and bridges not checked; cysteine pairing not given here; UniProt P0DKR6 22-78, looked up)”, the “effect on rASIC1a/3” value in the test on rASIC1a/3 is recorded as “no effect”. The figures for the IC50 in the test with rASIC1b (ref 21) and with rASIC1b (ref 27) were 192 nM and 39 nM, respectively.

Substance “mambalgin (Mamb), wild-type peptide (from UniProt P0DKS3 1-57)” registered an IC50 of inhibition of pH 5.5-evoked currents of homomeric rASIC1b in Xenopus oocytes (TEVC; peptide applied for 30 s at pH 7.4) in test [1] of 119 nM. Further, the IC50 of inhibition of pH 5.5-evoked currents of homomeric rASIC1a in Xenopus oocytes (TEVC; peptide applied for 30 s at pH 7.4) in test [2] was 110 nM. This substance also returned an IC50 of inhibition of pH 6.7-evoked currents of homomeric rASIC1a in Xenopus oocytes (TEVC; peptide applied for 30 s at pH 7.4) in test [3] of 86 nM.
